Test system: blood cells
Assay: Hemolysis of blood cells on blood retention tool (plasma colored red with Hb)
Assay type: cell-based
Details: tools of Example 4 / Comparative Example 4; glycine as 5% solution
Method: Blood cell separation was carried out using this tool, and the presence or absence of hemolysis was determined. In the following, unless otherwise stated, the concentration (%) of a hemolysis inhibitor in a hemolysis inhibitor solution is represented by a percentage (unit: (w/v) %) of the weight (unit: g) of the hemolysis inhibitor with respect to the volume (100 ml) of a solvent.
Hemolysis inhibitors were dissolved in solvents (distilled water) beforehand to prepare hemolysis inhibitor solutions shown in Table 1 below. […]
On the glass filter surface of each of the thus-obtained blood retention tools, 100 μl of whole blood (hematocrit: 38%) was dropped to cause the separation of blood cells and plasma and the development of the plasma. Then, after a lapse of 2 minutes, the presence or absence of hemolysis of the blood cells was determined. […]
Blood retention tools (Example 3-1 and 3-2) were produced in the same manner as in Example 1, except that the following development porous membranes (a filter paper and a cellulose acetate membrane) and blood cell separation porous membranes (glass filters) were used and valine was used as the hemolysis inhibitors. […] Using these blood retention tools, blood cell separation was carried out and the presence or absence of hemolysis and the development of blood cells were determined in the same manner as in Examples 1 and 2.

## NCC(=O)O [Gly, glycine]
  hemolysis: occurrence of hemolysis was observed
